Assay results published in patent US20210170035A1, “METHOD OF TREATING CANCER BY TARGETING MYELOID-DERIVED SUPPRESSOR CELLS” (priority 2016, published 2021).
Read-outs that look alike come from different tables or passages of the source.

Columns and labels:
TAMs/MDSCs [1] = test: Nitric oxide assay (Greiss reagent) after in vitro TAMs/MDSCs screening; assay type: cell-based, mouse
Protocol: (§1) 10 million 4T1 cells in 300 μL PBS were injected into the peritoneal cavity. Peritoneal ascites were collected between day 7 and day 10 by peritoneal lavage. […] Cells were counted and ready for flow cytometry staining and in vitro screening.
(§2) Different concentrations of screening drugs listed in Table 2 were dissolved in the same medium and were added to each well containing 0.5 millions of cells in 300 μL medium. Wells containing 0.5 million cells in 300 μL medium without addition of drugs were kept as untreated control. Three extra wells were charged with 300 μL medium without cells and drugs to be kept as background control. […] At the end of incubation, supernatant was collected for IL-10 ELISA and nitric oxide assay. Cells were washed twice with 300 μL PBS, and were then ready for the arginase assay.
Nitric oxide production was measured with Greiss reagent as reported in Je-In Youn, Srinivas Nagaraj, Michelle Collazo, and Dmitry I. Gabrilovich, Subsets of Myeloid-Derived Suppressor Cells in Tumor Bearing Mice′, J Immunol. […] Briefly, after in vitro incubation of TAMs/MDSCs with different drugs, 50 μL of supernatant from each well was transferred into a 96-well plat bottom clear plate. 20 μL of Greiss reagent and 30 μL of DI water were added to each well with 50 μL of supernatant. The reaction solution was kept in the dark at room temperature for 30 min prior to a plate reader measurement. The absorbance at 548 nm is correlated to concentration of nitric oxide produced by TAMs/MDSCs. Results are shown in FIG. 9, FIG. 10, FIG. 11 and FIG. 14.

TAMs/MDSCs [2] = test: IL-10 ELISA assay after in vitro TAMs/MDSCs screening; assay type: cell-based, mouse; settings: co-culture with drug; absorbance at 492 nm
Protocol: as §1
Cells isolated from the peritoneal model were re-suspended in completed RPMI 1640 medium supplemented with 10 ng/mL mouse GM-CSF and seeded into 96 well plates. Different concentrations of screening drugs listed in Table 2 were dissolved in the same medium and were added to each well containing 0.5 millions of cells in 300 μL medium. Wells containing 0.5 million cells in 300 μL medium without addition of drugs were kept as untreated control. Three extra wells were charged with 300 μL medium without cells and drugs to be kept as background control. Cells were then incubated at 37° C. in a humidified 95% air 5% CO2 atmosphere for 24 hours to 48 hours. At the end of incubation, supernatant was collected for IL-10 ELISA and nitric oxide assay. Cells were washed twice with 300 μL PBS, and were then ready for the arginase assay.
IL-10 production by TAMs/MDSCs after in vitro incubation with different compounds was determined by ELISA assay following the protocol provided with the Mouse IL-10 DuoSet ELISA by R&D Systems. Briefly, a high affinity 96-well plate was coated with 100 μL of diluted capture antibody per well with the working concentration of 4 μg/mL in PBS without carrier protein. The plate was sealed, and incubated overnight at room temperature. Each well was aspirated, and washed three times with 400 μL of wash buffer (0.05% Tween®20 in PBS, pH 7.2-7.4) using a squirt bottle. After the last wash, remaining wash buffer was removed by inverting the plate and blotting it against clean paper towels. The plates were blocked by adding 300 μL of reagent diluent (1% BSA in PBS, pH 7.2-7.4) to each well, and incubated at room temperature for 1 hour. Aspiration/wash was repeated three times in the same manner as previously described. The plates were ready for sample addition. 100 μL of sample supernatant from TAMs/MDSCs in vitro screening were added to each well. The plate was covered with an adhesive strip and incubated for 2 hours at room temperature. The previously mentioned aspiration/wash procedure was repeated three times. 100 μL of the detection antibody with the concentration of 300 ng/mL in reagent diluent was added to each well. The plate was covered with a new adhesive strip and incubated for 2 hours at room temperature. The previously mentioned aspiration/wash procedure was repeated three times. 100 μL of working dilution of streptavidin-HRP (1 to 40 dilution in reagent dilute) was added to each well. The plate was covered and incubated for 20 minutes at room temperature in dark. The previously mentioned aspiration/wash procedure was repeated three times. 200 μL of substrate solution (one bag of silver and golden tablets of OPD in 20 mL of DI water) was added to each well. The plate was incubated for 20 minutes at room temperature in dark. 50 μL of stop solution (3M HCl) was added to each well. The plate was gently tapped to ensure thorough mixing. The IL-10 concentration was proportional to the optical density determined by a microplate reader at 492 nm.

TAMs/MDSCs [3] = test: Arginase assay after in vitro TAMs/MDSCs screening; assay type: cell-based, mouse
Protocol: as §1, §2
Briefly, after in vitro incubation of isolated TAMs/MDSCs with different drugs in 96 well plates, cells were washed twice with 300 μL PBS. […] Subsequently, 50 μL of the lysate solutions were transferred to a new V-shape 96 well plate. 50 μL of arginase activation solution (10 mM MnCl2/50 mM Tris.Cl (pH 7.5)) were added into the cell lysate. The enzyme was activated by heating for 10 min at 56° C. Arginine hydrolysis was conducted by incubating 25 μL of the activated solution with 25 μL of arginase substrate solution (0.5 M L-arginine (pH 9.7)) at 37° C. for 60 min with mild shaking. After cooling to room temperature, 10 μL of the reaction solution was then diluted into 90 μL of PBS. 10 μL of this diluted solution was transferred to a 96 well flat bottom clear plate. 200 μL of urea reagents were added to each well. After incubation in the dark at room temperature for 10 min, the urea concentration was measured at 520 nm by plate reader.

human MDSCs = test: IL-10 production by in vitro induced human MDSCs; assay type: cell-based; settings: cultured with drugs for 2 days
Protocol: Human PBMCs from healthy donor were isolated by density gradient centrifugation following standard procedure: […]
Blood was dilute blood with PBS (1:2 dilutions). 15 ml of Ficoll was transferred to a 50 ml tube. 35 ml of diluted blood was carefully placed over the Ficoll medium. The tube was centrifuged at 400 g for 30 min, at 24° C. without brake. After the centrifuge stoped, the tube was carefully removed from the centrifuge while not disturbing the layering. The PBMCs were carefully remove from the tube and transferred to a new 50 mL conical tube. Isolated PBMCs were washed with PBS and centrifuged at 300 g for 10 min. The supernatant was decanted. The pellet was washed once again in PBS and centrifuged at 200 g for 15 min. The isolated PBMCs were counted with the hemocytometer.
Isolated PBMCs were further purified by adhesion in serum free medium for 4 hours at 37° C. at a density of 3×10^6 cell/ml. After removing the suspension cells, adhered PBMCs were cultured in completed RPMI-1640 supplied with 10 ng/ml of IL-6 and GM-CSF for 7 days. Human MDSCs were then sorted by flow as CD33+ cells. Normal human macrophages were differentiated by co-culture PBMCs with completed RPMI-1640 medium for 7 days.
Human MDSCs were cultured with selected drugs for 2 days. The IL-10 production by MDSCs was measured and plotted vs drug concentrations.

[4] = test system: F4/80+CD86+ : F4/80+CD206+ macrophages; test: Ratio of M1 to M2 macrophages in 4T1 solid tumor; assay type: in vivo, balb/c mice; settings: tumor digestion at end of therapeutic study
Protocol: The ratio of M1 to M2 macrophages (F4/80+CD86+: F4/80+CD206+) was tested in groups of untreated control, FA-TLR7 agonist, FA-PI3K inhibitor, FA-Tubulysin and combination as well as competition groups.
As described in the previous methods part, after tumor digestion at the end of therapeutic study, isolated cells were stained by F4/80 macrophage marker and M1 (CD86), M2 (CD206) markers. Macrophages in a tumor environment have been considered as a mainly M2 macrophage function, which can support tumor growth and suppress the immune response. On the other hand, M1 macrophages have been considered to be able to eliminate tumor cells and stimulate an anti-cancer immune response. Therefore, to study the M1 to M2 macrophage ratio is very important for targeting FR-β positive TAMs/MDSCs. […] Therefore, it could be concluded that by targeting FR+ TAMs/MDSCs in 4T1 solid tumor, the three classes of FA-conjugated […] are able to convert immunosuppression M2 macrophages environment to an anti-cancer M1 macrophages environment, which would contribute to the slow growth of a tumor.

MDSCs (CD11b+Gr1+) = test: MDSCs population (CD11b+Gr1+) in 4T1 solid tumor; assay type: in vivo, balb/c mice; settings: tumor digestion at end of therapeutic study
Protocol: The MDSCs population (CD11b+Gr1+) was tested in groups of untreated control, FA-TLR7 agonist, FA-PI3K inhibitor, FA-Tubulysin and combination as well as competition groups.
As described in previous methods part, after tumor digestion at the end of therapeutic study, isolated cells were stained by MDSCs markers CD11b+Gr1+, see FIG. 26.

F4/80+ macrophages = test: Intracellular staining of arginase on F4/80+ macrophages from 4T1 solid tumor; assay type: in vivo, balb/c mice; settings: tumor digestion at end of therapeutic study
Protocol: Intracellular arginase staining: Cell surface markers for TAMs/MDSCs were labeled following procedures mentioned previously. 0.1 μL fixable viability dye eFluor® 660 was added together with antibody cocktails. After washing with PBS, cells were fixed with 4% formaldehyde in 500 μL of PBS for 15 min at 4° C. Cells were spun down to remove fixing solution. Cells were washed two times with 500 μL washing buffer containing 0.1 M glycine and 0.05% sodium azide. After being spun down a final time, cells were added 1 mL permeabilization solution containing 0.1 M glycine, 0.05% sodium azide and 0.1% triton-100. Permeabilization was performed at room temperature for 5 min. Permeabilized cells were spun down at 1500 rpm for 1 min, and the cells were washed three times with 1 mL blocking buffer containing 0.05 M glycine, 0.05% sodium azide and 0.2% gelatin. Cells were then re-suspended in 1 mL blocking buffer at 4° C. overnight to block non-specific intracellular binding. Cells were then spun down at 1500 rpm for 1 min to remove the supernatant and another 100 μL blocking buffer containing 1 μL FITC-arginase was added. Cells were kept in the dark at 4° C. overnight. After being spun down at 1500 rpm for 1 min, cells were washed with 1 mL blocking buffer and were then ready for flow cytometry analysis (BD Accuri C6™ flow cytometer). […]

[5] = co-culture with drug, absorbance at 548 nm
[6] = co-culture with drug, absorbance at 520 nm

Row | SMILES | nitric oxide production by TAMs/MDSCs in vitro (TAMs/MDSCs [1]; [5]) | IL-10 production by TAMs/MDSCs in vitro (TAMs/MDSCs [2]) | arginase production by TAMs/MDSCs in vitro (TAMs/MDSCs [3]; [6]) | IL-10 production by human MDSCs (human MDSCs) | other results
1 | Cc1ccc(-n2nc(C(C)(C)C)cc2NC(=O)Nc2ccc(OCCN3CCOCC3)c3ccccc23)cc1 [BIRB796] | efficiently decrease nitric oxide production | efficiently decrease IL-10 production | efficiently decrease arginase production |  | 
2 | Nc1cccc2c1CN(C1CCC(=O)NC1=O)C2=O (centres unmarked) [lenalidomide] |  | efficiently decrease IL-10 production |  |  | 
3 | Cn1c(=O)n(-c2ccc(C(C)(C)C#N)cc2)c2c3cc(-c4cnc5ccccc5c4)ccc3ncc21 [BEZ235] | efficiently decrease nitric oxide production | efficiently decrease IL-10 production | efficiently decrease arginase production | decreasing IL-10 production | 
4 | NC(=O)c1cnc(NCCc2ccc(O)c(Cl)c2)nc1NCc1ccccc1 [AS1517499] | efficiently decrease nitric oxide production | efficiently decrease IL-10 production | efficiently decrease arginase production |  | 
5 | CC1CCN=C(N)S1 (centres unmarked) [AMT] | efficiently decrease nitric oxide production |  |  |  | 
6 | Cc1c(CN2CCN(C(=O)[C@H](C)O)CC2)sc2c(N3CCOCC3)nc(-c3cnc(N)nc3)nc12 [GDC-0980] | best candidate that can efficiently decrease nitric oxide | best candidate that can efficiently decrease IL-10 | best candidate that can efficiently decrease arginase | decreasing IL-10 production | 
7 | CO[C@H]1C[C@@H]2CC[C@@H](C)[C@@](O)(O2)C(=O)C(=O)N2CCCC[C@H]2C(=O)O[C@H]([C@H](C)C[C@@H]2CC[C@@H](OCCO)[C@H](OC)C2)CC(=O)[C@H](C)/C=C(\C)[C@@H](O)[C@@H](OC)C(=O)[C@H](C)C[C@H](C)/C=C/C=C/C=C/1C [everolimus] | efficiently decrease nitric oxide production |  |  |  | 
8 | Cc1c(CN2CCN(C(=O)C(C)OC(=O)OCCSSCC(NC(=O)CCC(NC(=O)c3ccc(NCc4cnc5nc(N)[nH]c(=O)c5n4)cc3)C(=O)O)C(=O)O)CC2)sc2c(N3CCOCC3)nc(-c3cnc(N)nc3)nc12 (centres unmarked) [FA-PI3K inhibitor] |  |  |  |  | M1 to M2 macrophages ratio vs untreated control [4]: dramatically increased; anti-cancer effect on co-injection of 200 times more competitor (FA-PEG-NH2) (4T1 solid tumor; competition group, same schedule): can be competed; tumor growth, therapeutic study (4T1 solid tumor; i.v. 5 days per week for 2 weeks from day 6, 10 nmol FA-TLR7 agonist, 10 nmol FA-PI3K inhibitor, 30 nmol FA-tubulysin): tumor growth was slowed down; MDSCs population (CD11b+Gr1+) vs untreated control (MDSCs (CD11b+Gr1+)): no difference; arginase+F4/80+ cell population in live cells vs untreated control (F4/80+ macrophages): dramatically decreased
9 | CC[C@H](C)[C@H](NC(=O)[C@H]1CCCCN1C)C(=O)N(COC(=O)CC(C)C)[C@H](C[C@@H](OC(C)=O)c1nc(C(=O)N[C@@H](Cc2ccc(C)cc2)C[C@H](C)C(=O)O)cs1)C(C)C [tubulysin] |  | efficiently decrease IL-10 production |  | decreasing IL-10 production | nitric oxide production by TAMs/MDSCs in vitro (TAMs/MDSCs [1]): efficiently decrease nitric oxide production; arginase production by TAMs/MDSCs in vitro (TAMs/MDSCs [3]): efficiently decrease arginase production
10 | CCCCNc1nc(N)c2[nH]c(=O)n(Cc3ccc(C(=O)NCC(=O)NCCCNCCCCNCCCN)cc3)c2n1 [CL307] |  |  | efficiently decrease arginase production |  | 
11 | CC[C@]1(O)C[C@@H]2CN(CCc3c([nH]c4ccccc34)[C@@](C(=O)OC)(c3cc4c(cc3OC)N(C)[C@H]3[C@@](O)(C(=O)OC)[C@H](OC(C)=O)[C@]5(CC)C=CCN6CC[C@]43[C@@H]65)C2)C1 [vinblastine] |  |  |  | decreasing IL-10 production | 
12 | CN(Cc1cnc2nc(N)nc(N)c2n1)c1ccc(C(=O)N[C@@H](CCC(=O)O)C(=O)O)cc1 [methotrexate] | efficiently decrease nitric oxide production |  |  |  | 
